Read-outs that look alike come from different tables or passages of the source. Where a SMILES comes first, the peptide text is derived from it. Bridges are numbered along the chain shown (N, C = ends).
How the values were obtained:
[1] = biological target: T1, GC-C (Homo sapiens, UniProt P25092); experiment: cell-based; settings: 30 min at 37° C., IBMX
[2] = biological target: T1, GC-C; experiment: biochemical; format: binding
[3] = after oral administration at therapeutic dose levels; cited from earlier work

T1 sequence (P25092 24-1073 limits assumed): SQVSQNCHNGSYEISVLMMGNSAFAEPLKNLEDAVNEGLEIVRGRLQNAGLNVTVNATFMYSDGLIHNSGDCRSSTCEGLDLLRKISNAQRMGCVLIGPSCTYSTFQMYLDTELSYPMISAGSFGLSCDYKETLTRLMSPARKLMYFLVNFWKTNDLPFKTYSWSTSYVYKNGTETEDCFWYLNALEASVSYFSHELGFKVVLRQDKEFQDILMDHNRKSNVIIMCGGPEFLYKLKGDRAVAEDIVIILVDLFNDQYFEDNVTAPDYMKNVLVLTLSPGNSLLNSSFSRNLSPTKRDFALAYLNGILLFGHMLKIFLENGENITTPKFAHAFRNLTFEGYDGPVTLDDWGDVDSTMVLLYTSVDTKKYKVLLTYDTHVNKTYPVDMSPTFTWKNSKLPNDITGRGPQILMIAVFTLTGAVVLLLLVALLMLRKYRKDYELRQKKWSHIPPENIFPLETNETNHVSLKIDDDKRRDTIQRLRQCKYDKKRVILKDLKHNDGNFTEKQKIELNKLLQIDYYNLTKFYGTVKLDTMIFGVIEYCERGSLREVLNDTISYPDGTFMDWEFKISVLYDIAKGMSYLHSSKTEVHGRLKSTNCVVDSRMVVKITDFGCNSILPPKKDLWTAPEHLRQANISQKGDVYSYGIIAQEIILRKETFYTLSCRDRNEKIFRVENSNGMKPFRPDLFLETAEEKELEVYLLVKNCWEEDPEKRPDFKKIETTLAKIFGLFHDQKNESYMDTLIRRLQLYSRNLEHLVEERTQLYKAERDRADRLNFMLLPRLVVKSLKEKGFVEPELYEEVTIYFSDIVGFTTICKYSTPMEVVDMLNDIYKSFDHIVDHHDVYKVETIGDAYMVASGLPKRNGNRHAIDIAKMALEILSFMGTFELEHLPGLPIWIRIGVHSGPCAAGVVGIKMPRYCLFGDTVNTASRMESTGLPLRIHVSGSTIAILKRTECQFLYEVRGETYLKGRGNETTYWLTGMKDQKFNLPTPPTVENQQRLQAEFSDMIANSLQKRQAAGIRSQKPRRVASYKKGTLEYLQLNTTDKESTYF

| SMILES | EC50 ([1]; pH 5 (DMEM+20 mM MES), read-out: cGMP response in T84 cells EC50 nM pH 5) [nM] | EC50 ([1]; pH 8 (DMEM+50 mM sodium bicarbonate), read-out: cGMP response in T84 cells EC50 nM pH 8) [nM] | Ki ([2]; Binding affinity for GC-C Ki (nM) pH 5) [nM] | Ki ([2]; Binding affinity for GC-C Ki (nM) pH 8) [nM] | levels of linaclotide seen systemically [3] |
| --- | --- | --- | --- | --- | --- |
| CC(C)C[C@@H]1NC(=O)[C@H](CCC(=O)O)NC(=O)[C@@H]2CSSC[C@@H]3NC(=O)[C@H](C)NC(=O)[C@@H]4CCCN4C(=O)[C@H](CC(N)=O)NC(=O)[C@H](CSSC[C@H](NC(=O)[C@H](CC(=O)O)NC(=O)[C@H](CC(=O)O)NC(=O)[C@@H](N)CC(=O)O)C(=O)N2)NC(=O)[C@H](CSSC[C@@H](C(=O)N[C@@H](Cc2ccc(O)cc2)C(=O)O)NC(=O)CNC(=O)[C@H]([C@@H](C)O)NC3=O)NC1=O [Peptide 17, DDDCCELCCNPACTGCY] | 12.9 | 4980 | 4.3 | 27.3 | – |
| C[C@@H]1NC(=O)[C@@H]2CCCN2C(=O)[C@H](CC(N)=O)NC(=O)[C@@H]2CSSC[C@H](N)C(=O)N[C@H]3CSSC[C@H](NC1=O)C(=O)N[C@@H]([C@@H](C)O)C(=O)NCC(=O)N[C@H](C(=O)N[C@@H](Cc1ccc(O)cc1)C(=O)O)CSSC[C@H](NC(=O)[C@H](Cc1ccc(O)cc1)NC(=O)[C@H](CCC(=O)O)NC3=O)C(=O)N2 [linaclotide, Linaclotide] (H-CCEYCCNPACTGCY-OH; disulfide 1-6, 2-10, 5-13) | – | – | – | – | no detectable levels |

Source: patent publication US9527887B2 (priority 2011, dated 2016)
